Results taken from patent US20170348288A1, “DOSING REGIMENS FOR BETA-3 ADRENOCEPTOR AGONISTS AND ANTI-MUSCARINIC AGENTS FOR THE TREATMENT AND PREVENTION OF LOWER URINARY TRACT SYMPTOMS AND OVERACTIVE BLADDER” (VELICEPT THERAPEUTICS, INC., priority 2016, published 2017).

Assays:
[1] = molecular target: T1, beta-3 adrenoceptor (Rattus norvegicus, UniProt P26255); assay: Pilot cumulative concentration response curves to determine EC90 for inhibition of EFS-induced contraction in rat isolated bladder; conditions: rat isolated bladder strips, EFS 15 Hz, CCRC half-log increments; calculated values; read-out: EC90 concentration to inhibit EFS-induced contraction in rat isolated bladder
T1 construct: The bladder longitudinal smooth muscle, with the urothelium still attached were mounted in 25 ml organ baths; from tissue; host or cells: rat urinary bladder (longitudinal smooth muscle with urothelium), male CD rats
T1 sequence (P26255 whole entry): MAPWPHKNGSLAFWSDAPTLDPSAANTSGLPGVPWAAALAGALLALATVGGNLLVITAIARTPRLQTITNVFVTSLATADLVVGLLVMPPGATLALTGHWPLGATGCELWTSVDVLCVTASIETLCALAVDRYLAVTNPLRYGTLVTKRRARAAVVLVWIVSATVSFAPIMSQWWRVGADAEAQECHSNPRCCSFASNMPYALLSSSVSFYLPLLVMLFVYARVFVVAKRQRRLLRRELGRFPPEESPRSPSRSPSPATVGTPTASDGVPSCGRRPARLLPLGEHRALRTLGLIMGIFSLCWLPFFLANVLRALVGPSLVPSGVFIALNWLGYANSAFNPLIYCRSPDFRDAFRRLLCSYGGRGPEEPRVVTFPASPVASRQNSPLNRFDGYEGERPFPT
Experimental: Macroscopically normal bladders from Male CD rats (220-250 g) were used. […] Each bladder was cleaned free of surrounding connective tissue and halved longitudinally. The bladder longitudinal smooth muscle, with the urothelium still attached were mounted in 25 ml organ baths containing physiological saline solution (PSS) (composition: 119.0 mM NaCl, 4.7 mM KCl, 1.2 mM MgSO4, 24.9 mM NaHCO3, 1.2 mM KH2PO4, 2.5 mM CaCl2 and 11.1 mM glucose) supplemented with 1 μM prazosin (α1-adrenoceptor antagonist) and 30 nM ICI118551 (β2-adrenoceptor antagonist), aerated with 95% O2/5% CO2 gas mix, warmed and maintained at approximately 37° C. throughout the experiment. Changes in force production were recorded using transducers. […]
EFS parameters and viability check: In initial experiments the parameters for the EFS were assessed by performing a frequency curve to determine a frequency that would give a response that was approximately 80% of the response seen to 80 mM KCl. Optimal EFS parameters were determined to be: 30 Volts, square pulse of 0.1 ms, train of 4 seconds every 120 seconds, 15 Hz. […]
Pilot studies to determine EC90 concentrations of the test compounds were performed. […] From the data obtained in these experiments, EC90 concentrations of the test compounds were determined for use in subsequent experiments. […]

[2] = molecular target: T1, beta-3 adrenoceptor; assay: Desensitization and washout: CCRC on EFS-induced contraction of rat bladder strips after pre-incubation with the EC90 concentration and washing with PSS
Experimental: Macroscopically normal bladders from Male CD rats (220-250 g) were used. […] Each bladder was cleaned free of surrounding connective tissue and halved longitudinally. The bladder longitudinal smooth muscle, with the urothelium still attached were mounted in 25 ml organ baths containing physiological saline solution (PSS) (composition: 119.0 mM NaCl, 4.7 mM KCl, 1.2 mM MgSO4, 24.9 mM NaHCO3, 1.2 mM KH2PO4, 2.5 mM CaCl2 and 11.1 mM glucose) supplemented with 1 μM prazosin (α1-adrenoceptor antagonist) and 30 nM ICI118551 (β2-adrenoceptor antagonist), aerated with 95% O2/5% CO2 gas mix, warmed and maintained at approximately 37° C. throughout the experiment. Changes in force production were recorded using transducers. After mounting, the bladder halves were allowed to equilibrate for at least 30 min before they were set to a stable tension of approximately 1.0 g. The tissue was then allowed to equilibrate over at least a 60 min period with washes every 15 min.
EFS parameters and viability check: In initial experiments the parameters for the EFS were assessed by performing a frequency curve to determine a frequency that would give a response that was approximately 80% of the response seen to 80 mM KCl. Optimal EFS parameters were determined to be: 30 Volts, square pulse of 0.1 ms, train of 4 seconds every 120 seconds, 15 Hz. This frequency was then used to stimulate the tissue for all subsequent experiments. The viability of bladder strips was tested by stimulating the tissue with EFS for minimum of ten min.
The bladder muscle strips were incubated with the EC90 determined for each test compound in the pilot studies, for a period of 1 or 3 hr. Following compound incubation, the tissues were washed with PSS for a period of 1, 3 or 6 hr, with washes approximately every 15 min, to remove the drug. At the end of the final wash period the tissues were stimulated with EFS, and left to equilibrate for at least 30 min. -A CCRC was then performed in each tissue.

[3] = molecular target: T2, murine adipocyte beta-3 adrenoceptor (Mus musculus, UniProt P25962); conditions: literature report, cited from earlier work
T2 construct: host or cells: murine adipocytes (no further detail)
T2 sequence (P25962 whole entry): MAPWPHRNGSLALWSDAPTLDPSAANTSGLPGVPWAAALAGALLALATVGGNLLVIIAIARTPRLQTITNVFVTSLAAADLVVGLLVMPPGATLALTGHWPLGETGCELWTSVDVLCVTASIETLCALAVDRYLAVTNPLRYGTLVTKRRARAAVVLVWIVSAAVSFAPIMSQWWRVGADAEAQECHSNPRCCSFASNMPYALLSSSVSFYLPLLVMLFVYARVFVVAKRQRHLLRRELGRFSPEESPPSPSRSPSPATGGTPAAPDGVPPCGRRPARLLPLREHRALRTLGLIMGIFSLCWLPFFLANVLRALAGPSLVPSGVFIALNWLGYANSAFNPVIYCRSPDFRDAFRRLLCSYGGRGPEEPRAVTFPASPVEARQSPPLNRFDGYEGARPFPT

[4] = three hr incubation with EC90, one hr of washing
[5] = three hr incubation, low and mid-concentration range

Compound	EC90 [1] [µM]	Concentration range in which the EFS-mediated response was potentiated ([2]; following 1 or 3 hr of washout) [nM]	Responses to the agonist (CCRC, reduction of EFS-induced contraction) vs vehicle-incubated tissue ([2]; one hr incubation with EC90, one hr of washing with PSS)	Responses to the agonist (CCRC, reduction of EFS-induced contraction) vs vehicle-incubated tissue ([2]; one hr incubation with EC90, three hr of washing, higher concentrations)	Potentiation of EFS-induced contraction from baseline ([2]; one hr incubation, lower and mid-concentration range)	Responses to the agonist (CCRC, reduction of EFS-induced contraction) vs vehicle-incubated tissue [2, 4]	Responses to the agonist (CCRC, reduction of EFS-induced contraction) vs vehicle-incubated tissue ([2]; three hr incubation with EC90, three hr of washing, highest concentrations)	Potentiation of EFS-induced contraction from baseline [2, 5]	Functional response following prolonged exposure to the beta-3 agonist ([3]; murine adipocytes)	Effect on murine adipocyte beta-3 adrenoceptor [3]
Nc1nc(CC(=O)Nc2ccc(CCNC[C@H](O)c3ccccc3)cc2)cs1 [mirabegron, (R)-2-(2-aminothiazol-4-yl)-N-(4-(2-((2-hydroxy-2-phenylethyl)amino)ethyl)phenyl)acetamide]	15.3	10 to 1000	significantly attenuated	significantly attenuated	marked potentiation of EFS-induced contraction	significantly attenuated	significantly attenuated	marked potentiation of EFS-induced contraction		
C[C@H](Cc1ccc2c(c1)OC(C(=O)[O-])(C(=O)[O-])O2)NC[C@H](O)c1cccc(Cl)c1.[Na+].[Na+] [CL-316,243]	0.042					significantly attenuated		not observed	attenuated	down-regulation
